Measurements from patent US20200046658A1, “PHARMACEUTICAL COMPOSITION FOR INDUCING EXERCISE MIMETIC EFFECT” (CELLVERTICS CO., LTD., priority 2015, published 2020).
Where a name gives a salt, the structure may show the parent alone. Marks after values point to notes of the source that are not given here.

What was measured:
[1] = test system: spontaneously hypertensive rat (SHR); assay: ATP level in tissues of SHR by ELISA; assay type: in vivo; conditions: versus control group SHRs, FIG. 5
Description: 0.02 g of liver tissue was homogenized in 500 μL of PBS. The homogenate was centrifuged at 1500×g (or 5000 rpm) for 15 minutes and the supernatant was subjected to measurement. After pouring 100 μL of a reference material or sample to an adequate well of an antibody-precoated microtiter plate, 10 μL of the residual solution was added to the sample. After adding 50 μL of a conjugate to each well and mixing, the plate was covered with a lid and incubated at 37° C. for 1 hour. After adding 50 μL of substrate A or B to each well, incubation was conducted at 37° C. for 15 minutes. After adding a stop solution to each well, optical density was measured at 450 nm using a microplate reader.
The level of ATP in the heart, skeletal muscle and liver was measured by ELISA for the 4-week-old basal rat (I), midodrine-administered rat (II), atenolol-administered rat (III) and 8-week-old unadministered control group rat (IV).

[2] = test system: spontaneously hypertensive rat (SHR); assay: Serum inflammatory markers, reactive oxygen species and adiponectin in SHR; assay type: in vivo; conditions: 8 weeks old, drug for 4 weeks, mean±SD; for ROS: blood
Description: (§1) The animals of the group I were anesthetized at 4 weeks of age while the rats of other groups were anesthetized at 8 weeks of age after being treated for 4 weeks. […] The recovered organs were kept in a refrigerator at −80° C. or in 10% formalin for fixation.
The concentration of total cholesterol, HDL cholesterol, LDL cholesterol and triglyceride was measured by enzymatic colorimetry (Roche Diagnostics GmbH; Mannheim, Germany). Also, serum assays for inflammatory markers were conducted using a […] cytokine Milliplex panel (Millipore Corporation, Billerica, Mass., USA) as recommended for cytokines (interleukin (IL)-1α, IL-1β, IL-6, IL-4, IL-10 and TNF-α). Acquisition was performed on a Luminex 100 platform and data analysis was carried out using the Multiplex analyzer. Reactive oxygen species and adiponectin were measured using the ELISA kit (MBS815494, Mybiosource). The measured blood adiponectin level was calibrated for the visceral fat weight (g).

[3] = test system: spontaneously hypertensive rat (SHR); assay: Echocardiographic examination of spontaneously hypertensive rats; assay type: in vivo
Source text: Spontaneously hypertensive rat (SHR) is an animal model in which hereditary hypertension is expressed. It is known that the hypertension which is the most similar to human primary hypertension is expressed. In SHR, blood pressure begins to increase around 4-6 weeks of age and hypertension is developed seriously at 8-12 weeks. SHR is widely used in studies as an animal mode of primary hypertension, especially hypertension with cardiac lesions, because it is frequently accompanied damage to the hypertensive target organs, such as cardiac hypertrophy, heart failure, renal disorder, etc.
3-week-old spontaneously hypertensive rats (SHRs) were kept under a standardized condition (21° C., 41-62% humidity) with periodic light/dark (10/14 hour) cycles and were freely allowed to access water and laboratory feed. All the animal experiments were approved by the Korea University Institutional Animal Care and Use Committee (KUIACUC-2012-100) and were in accordance with the Guideline for the Care and Use of Laboratory Animals.
After anesthetization by intramuscular injection of Zoletil (8 mg/kg) and xylazine (2 mg/kg), the rats were laid on their left sides and M-mode echo images were obtained. The examination was conducted using Vivid 7 (GE Medical Systems, Milwaukee, Wis., USA) equipped with a 12-MHz transducer. After acquiring optimized 2-dimensional short-axis images for the left ventricle at the papillary muscle level, M-mode tracing and echocardiographic images were recorded at a speed of 100 mm/s.

[4] = Body weight, cardiac weight and abdominal fat of SHR; assay type: in vivo, rat; conditions: 8 weeks old, drug in drinking water for 4 weeks (midodrine 0.2 mg/kg/day, atenolol 1 mg/kg/day), mean±SD
Description: as §1
Body weight and abdominal fat were measured and compared for the midodrine-administered rat (II), atenolol-administered rat (III) and 8-week-old unadministered hypertension control group rat (IV).

[5] = test system: aorta and cardiac muscle tissue; assay: mRNA expression of AT1R, eNOS, SOD, gp91-phox, TNFα in aorta and cardiac muscle of SHR; assay type: in vivo, rat
Description: as §1
Full-length RNA was extracted using the TriZol reagent according to the manufacturer's instructions. Complementary DNA was synthesized from the full-length RNA using the Power cDNA Synthesis kit and polymerase chain reaction was conducted for angiotensin II type I receptor (AT1R), endothelial nitric oxide synthase (eNOS), superoxide dismutase (SOD), gp91-phox (NADPH), tumor necrosis factor-alpha (TNF-α) and GAPDH using the PCR Premix kit.
The mRNA expression level of the genes related with vasoconstriction, nitric oxide production, oxidative stress and inflammation in the aorta and cardiac muscle tissue was investigated by […] for the 4-week-old basal rat (I), midodrine-administered rat (II), atenolol-administered rat (III) and 8-week-old unadministered control group rat (IV).

[6] = test system: mouse skeletal muscle cells (C2C12); assay: Western blot of p-AMPK, PPAR-δ and PGC-1α in differentiating C2C12 cells; assay type: cell-based; conditions: versus untreated control
Description: C2C12 cells (mouse skeletal cell line) were seeded onto a 6-well plate in a CO2 incubator at 37° C. and cultured in a DMEM medium containing 10% FBS and 1% antibiotics to about 80% confluency. After replacing the medium with one containing 1% FBS, differentiation was conducted for 3 days. Then, after replacing the medium with one containing 1% FBS and then treating with a drug, experiment was conducted 24 hours later.
The protein content of the extract was measured by the Bradford's method. The extracted proteins (20-30 μg) were loaded on a 10% SDS-PAGE gel. Western blot assay was conducted using primary antibodies for AMPKα, phosphorylated AMPKα, PPARδ and PGC-1α. Images were obtained manually using the Kodak GBX developer and a fixative reagent.
Specifically, after treating differentiating C2C12 cells with the compounds at different concentrations (10 μM, 30 μM, 50 μM), the expression of activated (phosphorylated) AMPK (p-AMPK), PPAR-δ and PGC-1α was investigated by western blot.

[7] = SHR, 8 weeks old, drug in drinking water for 4 weeks (midodrine 0.2 mg/kg/day, atenolol 1 mg/kg/day), mean±SD
[8] = C2C12, over 10 μM, 30 μM, 50 μM

CC(C)NCC(O)COc1ccc(CC(N)=O)cc1 (stereo not drawn) [Atenolol]
ATP level in heart tissue [1]: higher
Adiponectin ([2]; blood level calibrated for the visceral fat weight (g)): 6136.5 ± 574.7^bc ng/ml/g
ROS [2]: 223.1 ± 45.4^a ng/ml
ROS ([2]; listed as atenolol): lower
IL-1α ([2]; serum): 5.51 ± 2.64^c μg/ml
IL-1β ([2]; serum): 2.02 ± 1.53^a μg/ml
IL-4 ([2]; serum): 2.94 ± 0.90^b μg/ml
IL-6 ([2]; serum): 5.62 ± 1.42^a μg/ml
IL-10 ([2]; serum): 15.33 ± 2.79^b μg/ml
TNF-α ([2]; serum): 8.35 ± 1.36^b μg/ml
IL-1α ([2]; serum, listed as atenolol): significantly increased
IL-4 ([2]; serum, listed as atenolol): slightly higher
IL-10 ([2]; serum, listed as atenolol): slightly higher
TNF-α ([2]; serum, listed as atenolol): significantly increased
left ventricular performance ([3]; 8-week-old SHR, versus unadministered control (group IV)): higher
Diastolic left ventricular diaphragm [3, 7]: 1.50 ± 0.13^a mm
Diastolic left ventricular inner size [3, 7]: 6.33 ± 0.35^a mm
Diastolic left ventricular wall [3, 7]: 1.67 ± 0.16 mm
Left ventricular ejection fraction [3, 7]: 82.00 ± 5.31^a %
Left ventricular fractional shortening [3, 7]: 45.70 ± 5.82^a %
Left ventricular mass according to ASE [3, 7]: 1.10 ± 0.07^a g
Systolic left ventricular inner size [3, 7]: 3.43 ± 0.28^a mm
Body weight [4]: 296.46 ± 16.73^b g
Cardiac weight [4]: 1.47 ± 0.15^a g
Body weight ([4]; listed as atenolol): highest
TNFα expression in the aorta ([5]; among groups I-IV, FIG. 3A): moderate
expression of angiotensin II AT1R mRNA in the cardiac muscle ([5]; among groups I-IV, FIG. 3B): moderate
expression of angiotensin II AT1R mRNA in the aorta ([5]; versus control groups I and IV, FIG. 3A): lower

NCC(=O)NCC(O)c1ccccc1 (stereo not drawn) [Compound 10, 2-amino-N-(2-hydroxy-2-phenylethyl)acetamide hydrochloride]
expression of PPAR-δ ([6]; C2C12, 10 μM): significantly increased
expression of p-AMPK ([6]; C2C12, 30 μM): significantly increased
expression of PPAR-δ ([6]; C2C12, 50 μM): significantly increased
expression of p-AMPK ([6]; C2C12, 50 μM): significantly increased

CCc1ccc(OC)c(C(O)CNC(=O)CN)c1 (stereo not drawn) [Compound 9, 2-amino-N-(2-(5-ethyl-2-methoxyphenyl)-2-hydroxyethyl)acetamide hydrochloride]
expression of PGC-1α ([6]; C2C12, 30 μM): significantly increased
expression of p-AMPK ([6]; C2C12, 30 μM): significantly increased
expression of PGC-1α ([6]; C2C12, 50 μM): significantly increased
expression of p-AMPK ([6]; C2C12, 50 μM): significantly increased
expression of PGC-1α [6, 8]: overall increase
expression of PPAR-δ [6, 8]: overall increase
expression of p-AMPK [6, 8]: overall increase

COc1ccc(OC)c(C(O)CNC(=O)C(N)Cc2ccccc2)c1 (stereo not drawn) [Compound 5, 2-amino-N-(2-(2,5-dimethoxyphenyl)-2-hydroxyethyl)-3-phenylpropanamide]
expression of PPAR-δ ([6]; C2C12, 30 μM): significantly increased
expression of p-AMPK ([6]; C2C12, 30 μM): significantly increased

COc1cc(OC)cc(C(O)CNC(=O)CN)c1 (stereo not drawn) [Compound 8, 2-amino-N-(2-(3,5-dimethoxyphenyl)-2-hydroxyethyl)acetamide hydrochloride]
expression of PGC-1α ([6]; C2C12, 50 μM): significantly increased
expression of p-AMPK ([6]; C2C12, 50 μM): significantly increased
expression of PGC-1α [6, 8]: overall increase
expression of PPAR-δ [6, 8]: overall increase
expression of p-AMPK [6, 8]: overall increase

COc1ccc(OC)c(C(O)CNC(=O)C(C)N)c1 (stereo not drawn) [Compound 7, 2-amino-N-(2-(2,5-dimethoxyphenyl)-2-hydroxyethyl)propanamide]
expression of p-AMPK ([6]; C2C12, 10 μM): significant increase
expression of PPAR-δ ([6]; C2C12, 30 μM): significant increase
expression of p-AMPK ([6]; C2C12, 50 μM): significant increase
expression of PPAR-δ [6, 8]: concentration-dependent increase
expression of p-AMPK [6, 8]: concentration-dependent increase
